Experimental data taken from patent EP0282292B1, “Improved chelator for anaerobic sealants” (LOCTITE (IRELAND) Ltd., priority 1987, dated 1988).
Read-outs that look alike come from different tables or passages of the source.

Experiments:
[1] = anaerobic sealant formulation with acidic components
[2] = Stability at 82°C (time to first gellation) of curable formulation spiked with copper; conditions: for level of chelator able to counteract added copper: 0.5 ppm of added copper; for stability (time to first gellation): 82°C, spiked with copper after one week at room temperature, supernatant only

| SMILES | time to precipitation from solution after addition [1] | level of chelator able to counteract added copper [2] | stability (time to first gellation) [2] | chelator concentration, Sampled after 0.5hr. standing-supernatant liquid taken (1% Maleic Acid in PEGMA) | chelator concentration, Stirred 0.5hr. mixture sampled (1% Maleic Acid in PEGMA) | chelator concentration, supernatant after 4 days standing (1% Maleic Acid in PEGMA) | chelator concentration, supernatant after 5 days standing (1% Maleic Acid in PEGMA) | chelator concentration, Sampled after 0.5hr. standing-supernatant liquid taken (3% Saccharin in PEGMA) | chelator concentration, Stirred 0.5hr. mixture sampled (3% Saccharin in PEGMA) | chelator concentration, supernatant after 4 days standing (3% Saccharin in PEGMA) | chelator concentration, supernatant after 5 days standing (3% Saccharin in PEGMA) |
| --- | --- | --- | --- | --- | --- | --- | --- | --- | --- | --- | --- |
| O=C([O-])CN(CCN(CC(=O)[O-])CC(=O)[O-])CC(=O)[O-].[Na+].[Na+].[Na+].[Na+] [EDTA Na₄, ethylenediaminetetraacetic acid tetrasodium salt] | ≤ 24 h | – | – | – | – | – | – | – | – | – | – |
| CC(O)CN(CCN(CC(C)O)CC(C)O)CC(C)O (stereo not shown) [EDTPA, tetrakis-(2-hydroxy-propyl)-ethylenediamine] | – | 300 ppm | no loss of chelation efficiency on aging | – | – | – | – | – | – | – | – |
| O=C([O-])CN(CCO)CCN(CC(=O)[O-])CC(=O)[O-].[Na+].[Na+].[Na+] [HEDTA Na₃, N-hydroxyethylenediaminetriacetic acid trisodium salt] | – | 300 ppm | no loss of chelation efficiency on aging | 110 ppm | 826 ppm | 175 ppm | 180 ppm | 65 ppm | 904 ppm | 69 ppm | 75 ppm |
